The values that follow come from ChEMBL document CHEMBL1201862, “PubChem BioAssay data set” (2004).

Assay in all cases: growth of human tumour cells (NCI), 48 h
Assay [1] has as its system RXF 393.
Assay [2] concerns SNB-75.
Assay [3] relates to SF-295.
In assay [4] the test system is UACC-62.
Assay [5] has as its system HL-60.
Assay [6] relates to HOP-92.
For assay [7], the system named is SK-OV-3.
Assay [8] concerns SNB-19.
The test system of assay [9] is HCT-15.
The subject of assay [10] is 786-0.
Assay [11] relates to SR.
Assay [12] concerns Malme-3M.
Assay [13] concerns SN12C.
Assay [14] has as its system RPMI-8226.
Assay [15] has as its system COLO 205.
In assay [16] the test system is NCI-H23.
Assay [17] concerns OVCAR-3.
For assay [18], the system named is TK-10.

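A five-concentration, 48-hour dose response in 96-well plates underlies each endpoint, interpolated linearly between surrounding concentrations. The concentration for 50% growth inhibition is given as GI50.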 Calls of active or inactive are those of the source. Cut-off read from the data, not from the text of the source: active = GI50 up to about 1.1 µM and inactive = higher. Bounds are passed on as bounds.

Consider `COc1cc2c(c(OC)c1OC)-c1ccc(SC)c(=O)cc1C(CO)C2` (stereo not drawn), for which the GI50 in [1] was 0.104 µM (active); in assay [2], 0.0326 µM (active); in assay [3] it was 0.175 µM (active); in assay [4] it was 0.0414 µM (active); in [5] it was 0.0682 µM (active); in assay [6], 0.451 µM (active). Further, the GI50 in [7] was 0.109 µM (active); in assay [8], 0.802 µM (active); in assay [9], 0.227 µM; in [10], 0.355 µM (active); in [11], 0.0203 µM (active); in [12], 0.0811 µM (active). Besides, the GI50 in assay [13] was 0.335 µM (active); in [14] it was < 0.01 µM (active); in assay [15], 0.166 µM (active); in assay [16], 0.307 µM (active); in [17], 0.164 µM (active).
With `[N-]=[N+]=NC(c1cn(C2CC(O)C(CO)O2)c(=O)[nH]c1=O)C(I)I` (stereo not drawn), the GI50 in assay [1], in assay [3], in [4], in [5], in assay [6] and in [7] was > 100 µM (inactive) throughout. The GI50 in assay [8], in assay [10], in assay [11], in assay [12], in [18] and in assay [13] was > 100 µM (inactive) in each case. For the same compound, the GI50 in [14] is > 100 µM (inactive); in assay [15], > 100 µM (inactive); in assay [16], 71 µM (inactive); in [17], > 100 µM (inactive).
`CN(C)C(=N)NC(N)=S`: the GI50 in assay [1], in assay [2], in assay [3], in [4], in [5] and in assay [6] was > 100 µM (inactive) in each case. In addition, the GI50 was > 100 µM (inactive) in assay [7]; > 100 µM (inactive) in assay [8]; greater than 100 µM in assay [9]; > 100 µM (inactive) in assay [10]; > 100 µM (inactive) in assay [11]; > 100 µM (inactive) in [12]. Besides, the GI50 in [18], in [13], in assay [14], in assay [15], in assay [16] and in assay [17] was > 100 µM (inactive) throughout.
As for `COc1ccc(N2C(=O)c3c(c4[nH]c5ccccc5c4c4ccc(C(C)(C)C)cc34)C2=O)cc1`, the GI50 in [1] is 45.7 µM (inactive); in [2], 16.6 µM (inactive); in assay [3], 31.8 µM (inactive); in [4], 20.1 µM (inactive); in [6], 14.7 µM (inactive); in assay [7] it was 42.1 µM (inactive). Moreover, the GI50 in [8] was 54.2 µM (inactive); in assay [9], 42.8 µM; in assay [10] it was 28.4 µM (inactive); in assay [11] it was 21.2 µM (inactive); in assay [12], 83 µM (inactive); in assay [18], 51.4 µM (inactive). Moreover, the GI50 in assay [13] is 64 µM (inactive); in assay [15], 37.3 µM (inactive); in assay [16], 20 µM (inactive); in [17] it was 27.2 µM (inactive).
For the compound `Cc1cccc(-c2nnc(S)[nH]2)c1`, the GI50 in [2], in assay [3], in assay [4], in assay [5], in assay [6] and in assay [7] was > 100 µM (inactive) each time. The GI50 was > 100 µM (inactive) in [8]; greater than 100 µM in assay [9]; > 100 µM (inactive) in assay [10]; > 100 µM (inactive) in assay [11]; > 100 µM (inactive) in [12]; > 100 µM (inactive) in assay [18]. Moreover, the GI50 in assay [13], in assay [14], in assay [15], in assay [16] and in assay [17] was > 100 µM (inactive) in each case.
With `O=c1[nH]c2c(nc1NC13CC4CC(CC(C4)C1)C3)c(=O)oc1ccccc12`, the GI50 in [1] was 46.1 µM (inactive); in assay [2], 29.5 µM (inactive); in [4], > 100 µM (inactive); in assay [5], > 100 µM (inactive); in assay [6] it was > 100 µM (inactive); in [7] it was > 100 µM (inactive). Moreover, the GI50 was 62.2 µM (inactive) in assay [8]; greater than 100 µM in [9]; > 100 µM (inactive) in assay [10]; > 100 µM (inactive) in assay [11]; > 100 µM (inactive) in [12]; > 100 µM (inactive) in [18]. For the same compound, the GI50 was > 100 µM (inactive) in [13]; > 100 µM (inactive) in assay [14]; > 100 µM (inactive) in [15]; 26.2 µM (inactive) in assay [16]; > 100 µM (inactive) in assay [17].
For `CCOC(=O)C1Oc2ccc([N+](=O)[O-])cc2C1(C)O` (stereo not drawn), the GI50 in [1], in [2], in [3], in assay [4], in [5] and in assay [6] was > 100 µM (inactive) throughout. The GI50 in assay [7] was > 100 µM (inactive); in [8], > 100 µM (inactive); in [9], greater than 100 µM; in assay [10] it was > 100 µM (inactive); in assay [11] it was > 100 µM (inactive); in assay [12], > 100 µM (inactive). Moreover, the GI50 in assay [18], in assay [13], in assay [14], in [15], in assay [16] and in assay [17] was > 100 µM (inactive) each time.
On to `C=CCOC1=C2CC[C@H](O)[C@@]2(C)CCC1=O`, for which the GI50 in assay [1], in assay [2], in assay [3], in assay [4], in [5] and in assay [6] was > 100 µM (inactive) in each case. For the same compound, the GI50 in assay [7] is > 100 µM (inactive); in [8], > 100 µM (inactive); in [9], greater than 100 µM; in assay [10] it was > 100 µM (inactive); in [11] it was > 100 µM (inactive); in assay [12], > 100 µM (inactive). In addition, the GI50 in [18], in [13], in assay [14], in assay [15] and in [17] was > 100 µM (inactive) throughout.
Turning to `Cc1noc(C)c1C1=CCCCc2ccccc21`, the GI50 in assay [1] is 72.8 µM (inactive); in [2], 23.4 µM (inactive); in assay [3], > 100 µM (inactive); in assay [4], 64.3 µM (inactive); in assay [5], 21.7 µM (inactive); in assay [6], 26.5 µM (inactive). The GI50 is > 100 µM (inactive) in assay [7]; > 100 µM (inactive) in assay [8]; 99.8 µM in assay [9]; > 100 µM (inactive) in assay [10]; 16.6 µM (inactive) in assay [11]; 97.5 µM (inactive) in assay [12]. In addition, the GI50 in assay [13] was > 100 µM (inactive); in [14], 25.9 µM (inactive); in assay [15], > 100 µM (inactive); in assay [16], > 100 µM (inactive); in assay [17], 79.4 µM (inactive).
